Here are results for twelve compounds from patent publication US20050004144A1, “Combined use of IMPDH inhibitors with toll-like receptor agonists” (REGENTS OF THE UNIVERSITY OF CALIFORNIA, priority 2003, published 2005).

Entries after “also recorded” stand apart in the source; their conditions may differ. Read-outs that look alike come from different tables or passages of the source.

One series has as its system Punta toro. Particulars: literature (Smee et al.; Sidwell et al.); cited from earlier work.
Series [1] has as its system mice. As to conditions: cited from earlier work.
A further series has as its system cowpox. Particulars: cidofovir 30 mg/kg i.p.; Smee et al. 2002; cited from earlier work.
Series [2] concerns Mouse bone marrow-derived macrophages (BMDM). In words: Cytokine production of TLR ligand-stimulated BMDM with IMPDH inhibitors (ELISA). Particulars: for IL-12 production with TOG plus IMPDH inhibitor: TOG 100 μM, mizoribine 10 μM or mizoribine base 10 μM; for cytokine production induced by several different TLR-L: mouse bone marrow derived macrophages. It counts as cell-based. A general note: An ELISA detects its analyte on a solid surface through an enzyme-linked reagent.

The subject of another series is splenocytes. Nature of the series: Type I interferon production by splenocytes (bioassay). In kind it is cell-based, mice. Particulars: for TLR7 mediated type I interferon production in splenocytes: TOG or R-848 with or without Mb 10 μM, 24 hrs. As to the method: (§1) Type I interferon in serum was measured and results are shown.
Splenocytes of WT or SCID mice were stimulated with the indicated stimuli and Type I interferon was by bioassay.
(FIG. 20.) Splenocytes of WT or SCID mice were stimulated with the indicated stimuli and Type I interferon levels were determined by bioassay.

For series [3], the system named is Type I interferon in serum. Nature of the series: Type I interferon in serum of mice injected with TOG and Mb. In kind it is in vivo. Particulars: mice injected intravenously with TOG 250 μg and increasing doses of Mb. The method, then: as §1
In series [4] the test system is human peripheral blood mononuclear cells. Nature of the series: Cytokine production of TLR-L-stimulated human peripheral blood mononuclear cells with IMPDH inhibitors. In kind it is cell-based.
Series [5] deals with IRF-1, IRF-3, IRF-7, NF-kB, STAT-1. Nature of the series: Activation of IRFs, NF-kB and STAT-1 in BMDM (immunoblotting of nuclear extracts, EMSA). It counts as cell-based, mouse. In general terms: Mobility shift assays separate free from complexed probe on a gel.
For series [6], the system named is human peripheral blood leukocytes (hPBL). Nature of the series: IL-12 production in human peripheral blood leukocytes (ELISA). It counts as cell-based. As to conditions: TOG 100 μM, 24 hours.
The test system of another series is STAT-1. In words: STAT-1 activation in hPBL (western blotting). It counts as cell-based, human. As to conditions: by TOG, R-848 1 μM plus increasing doses, 3 hrs. As to the method: In the right panel, hPBL were stimulated with R-848 (1 μM) plus increasing doses of Mb or ribavirin (Rb) for 3 hrs and activation of STAT-1 was measured by western blotting. β-actin levels were measured as a control
(Immunoblotting shows a protein as a band on a membrane.)

The test system of series [7] is DNA dependent protein kinase catalytic subunit (DNA-PKcs). Nature of the series: Activation of DNA-PK in BMDM (in vitro kinase assay, GST-p53 substrate or autophosphorylation). It counts as cell-based. As to the method: IMPDH inhibitors and TLR7 activate DNA-PK. BMDM were stimulated with the Mb alone, TOG alone, or a combination of Mb and TOG. Activation of DNA-PK was measured by in vitro kinase assay using a GST-p53 substrate or DNA-PKcs autophosphorylation.
Activation of DNA-PK was measured by in vitro kinase assay using a GST-p53 substrate or DNA-PKcs autophosphorylation.

Series [8] relates to bone marrow derived dendritic cells (DC's). Nature of the series: TLR7 signaling in bone marrow derived dendritic cells. In kind it is cell-based. As to conditions: DC's stimulated by R-848 with Mb. The method, then: Bone marrow derived DC's were stimulated by R-848 with or without Mb for the indicated time period, and activation of NF-κB, MAP kinases (p38 and EKR) was measured. Actin levels were measured as a control.

A further series relates to Salmonella. As to conditions: human macrophages treated overnight with IFN-γ 100 ng/ml; over 24 hours; cited from earlier work.
Another series relates to Listeria monocytogenes. In words: Listeria infection in mice pretreated with TLR ligands. It counts as in vivo. Particulars: 10 μg three days before infection with 7×10^5 Listeria monocytogenes, observed nine days. The method, then: Groups of six mice were injected with 10 μg of either ISS-ODN, Pam3Cys, or polyI:C three days before infection with 7×10^5 Listeria monocytogenes. […] 5 mice also each received 10 μg of R-848, 24 hours before infection. […]

Series [9] relates to murine bone marrow mononuclear cells. In words: Cytokine responses of murine bone marrow mononuclear cells to TLR ligands (ELISA). It counts as cell-based. As to conditions: 48 hours, supernatant ELISA, PolyI:C 100 μg/ml, LPS 1 μg/ml, ISS-ODN 10 μg/ml, n.d.=none detected. As to the method: The cytokine responses of murine bone marrow mononuclear cells were compared to a TLR2-L (PGS), a TLR3-L (polyI:C), a TLR4-L(LPS), and a TLR9-L (ISS-ODN). IL-12, IL-10, IL-6, IL-1b, and KC (a chemokine) were assayed by ELISA (See 2.1.b Results).
Bone marrow cells were cultured in triplicate at 5×10^5 cells/ml with each TLR ligand in dose response studies covering a 3 log concentration range. The cells were cultured for 48 hours and supernatant cytokine levels were analyzed by ELISA. The minimal optimal concentration for each reagent was reported with a three fold increase in TLR ligand concentration not leading to any significant increase in cytokine production. Results are reported as means ± standard errors. n.d.=none detected

A further series concerns BALB/c mice. In words: Systemic adjuvant activity: intradermal immunization with ovalbumin (OVA) and TLR ligand. It counts as in vivo. The method, then:
Recently, the systemic adjuvant activities of other TLR-Ls were evaluated.
Six-week-old BALB/c mice (4 per group) were intradermally immunized with ovalbumin (OVA) (20 ug) and TLR ligand on day 0 and day 7. During week 6, serum was collected and splenocytes were harvested and cultured with OVA (50 ug/ml). After 3 days, splenocyte culture supernatants were collected. Sera Ig levels and splenocyte supernatant cytokine levels were determined by ELISA. Results are reported as means ± standard errors. n.d.=none detected.

Series [10] has as its system mice. In words: ISS pre-priming before β-gal immunization (splenocyte IFN-γ and CTL response). It counts as in vivo. Particulars: ISS up to 14 days prior to β-gal, compared to β-gal alone (P≦0.05). From the text:
FIG. 3 depicts splenocyte CTL and IFN-γ response after intradermal ISS pre-priming. Results represent the mean ± SE for four mice in each group and similar results were obtained in two other independent experiments. […] (a) IFN-γ response. […] (C) Comparison of CTL response at an effector:target ratio of 25:1.
In this experiment, the amount of time between which a mouse exposed to an antigen can produce an immune response was examined. (FIG. 3)
The results in FIG. 3 represent the mean ± SE for four mice in each group. Similar results were obtained in two other independent experiments. […] (A) IFN-γ response. […] (C) Comparison of CTL response at an effector:target ratio of 25:1.

Setting [11] is: splenocytes of week 6 cultured 3 days with OVA 50 ug/ml, supernatant ELISA, same immunization, n.d.=none detected.

As to `Nc1nc2c(ccn2[C@@H]2O[C@H](CO)[C@@H](O)[C@H]2O)c(=O)[nH]1` [7-deazaguanosine], the “protection of mice from Punta toro virus infection” value with Punta toro is on record as “protected mice from lethal infection”. Also, the toxicity to mice result with mice [1] (after systemic administration) is recorded as “remarkably non-toxic to mice”.

Regarding `CCCCCCn1cnc2c(=O)[nH]c(N)nc21` [9-hexylguanine], in the series on Punta toro, the “protection of mice from Punta toro virus infection” value is “protected mice from lethal infection”.

For the compound `Nc1ccn(C[C@@H](CO)OCP(=O)(O)O)c(=O)n1` [Cidofovir, cidofovir], in the series on cowpox, the lung viral titer is ~10^7 PFU/g of lung and the “protection of mice from death” value is reported as “protects all mice from death”.

On to `NC(=O)c1ncn([C@@H]2O[C@H](CO)[C@@H](O)[C@H]2O)c1O` [Mizoribine, mizoribine], for which the “IL-12 production with TOG plus IMPDH inhibitor” value in [2] (24 hrs) is given as “synergize with TOG”. The “cytokine production induced by several different TLR-L” value in series [2] and in series [4] was “potentiated cytokine production” throughout. Also, the “TLR7 mediated type I interferon production in splenocytes” value in the series on splenocytes is recorded as “more than two-fold”. In [3], the “increase of Type I interferon in blood (serum)” value is “more than 4 fold”.

Consider `NC(=O)c1ncn([C@@H]2O[C@H](CO)[C@@H](O)[C@H]2O)n1` [Ribavirin], for which the “IL-6 production by R-848 in the presence of ribavirin” value in series [2] (macrophages, abolished by addition of guanosine to the media (not shown)) is recorded as “enhancement of IL-6 production by R-848”. In addition, the “cytokine production induced by several different TLR-L” value in series [2] and in series [4] was “potentiated cytokine production” each time. In series [2] (no TLR ligand), the “cytokine induction by ribavirin alone” value is recorded as “did not induce any cytokines”. Further, the “TLR-mediated production of IL-12 (p40) in the presence of ribavirin” value in series [2] (ribavirin 10, 50, 100 μM, TLR ligands TOG 100 μM, R-848 1 μM, Pam3Cys 5 μg, p(I:C) 5 μg, LPS 10 ng, ISS 5 μg, 24 hrs) is given as “enhances TLR-mediated production of IL-12 (p40) in a dose dependent manner”. Besides, the “TOG-induced NF-κB activation (EMSA) and IRF-3 (western blotting)” value in series [5] (BMDM, TOG with Rb 50 μM) was “enhances TOG-induced NF-κB activation and activates IRF-3 transcription factor”. In series [6], the “IL-12 production after stimulation with TOG” value was “enhanced the increase of IL-12 production”. The “activation of STAT-1” value in the series on STAT-1 is recorded as “enchanced activiation”. The “protection of mice from Punta toro virus infection” value with Punta toro is on record as “significant activity”.

For `Nc1nc2c(sc(=O)n2[C@@H]2O[C@H](CO)[C@@H](O)[C@H]2O)c(=O)[nH]1` [TOG, 7-thia-8-oxoguanosine], the “levels of nuclear IRF-1, IRF-3 and IRF-7” value in series [5] (bone marrow cells exposed to TOG) was “increase markedly”. The “activation of DNA-PKcs” value in series [7] (single agents) is on record as “activate DNA dependent protein kinase catalytic subunit (DNA-PKcs)”. Further, the “protection of mice from Punta toro virus infection” value in the series with Punta toro is “protected mice from lethal infection; also recorded: significant activity”. In addition, the toxicity to mice entry in the series on mice [1] (mouse, in vivo) is “remarkably non-toxic to mice”.

Turning to `NC(=O)c1[nH]cnc1O` [mizoribine base], the “IL-12 production with TOG plus IMPDH inhibitor” value in [2] (24 hrs) is on record as “synergize with TOG”. For the same compound, the “cytokine production induced by several different TLR-L” value in series [2] and in series [4] was “potentiated cytokine production” throughout. For the same compound, the “dependence of IRF activation on DNA-PKcs and MyD88” value in series [5] (cells from wild-type mice and SCID mice) was “via DNA-PKcs but not MyD88”. In the series on splenocytes, the “TLR7 mediated type I interferon production in splenocytes” value is given as “augments TLR-7 mediated type I interferon production”. For the same compound, the “dependence of type I interferon induction by TOG combined with Mb on DNA-PKcs” value in the series on splenocytes (splenocytes of WT or SCID mice, TOG 100 μM, Mb 10 μM) was “partially dependent on DNA-PKcs”. In [3], the “increase of Type I interferon in blood (serum)” value was “augments TLR-7 mediated type I interferon production”. Moreover, in [6], the “IL-12 production after stimulation with TOG” value was “enhanced the increase of IL-12 production”. Also, in the series on STAT-1, the “activation of STAT-1” value was “enchanced activiation”. In addition, the “TLR7 signaling (NF-κB, MAP kinases p38 and EKR)” value in series [8] was “enhanced TLR7 signaling in DC's”. In [7], the “DNA-PK activation by the combination of TOG and Mb” value was “increased phosphorylation of substrates and earlier onset of phosphorylation”.

As for `COc1c(C)c2c(c(O)c1C/C=C(\C)CCC(=O)O)C(=O)OC2` [mycophenolic acid], the “IL-12 production after stimulation with TOG” value in series [6] is on record as “enhanced the increase of IL-12 production”.

Regarding IFN-γ, the “killing of the inoculum” value with Salmonella is recorded as 90-99%.

In the case of Pam3Cys, the “protection (survival) of mice from Listeria infection” value with Listeria monocytogenes is listed as “lived longer than controls”.

Regarding PolyI:C, the IL-12 in series [9] (5×10^5 cells/ml, minimal optimal concentration: PGS 100 μg/ml, means ± standard errors) is 570 ± 62 pg/mL. In addition, in [9] (PGS 100 μg/ml), the IL-1b amounted to 148 ± 27 pg/mL, the IL-6 came out at 2380 ± 657 pg/mL and the IL-10 worked out at 1374 ± 237 pg/mL. This compound also gave a KC in series [9] (chemokine, PGS 100 μg/ml) of 349 ± 62 pg/mL. Also, the “systemic adjuvant activity for vaccination” value with BALB/c mice (mouse, in vivo) is listed as “effective systemic adjuvants”. Moreover, the IgGl with BALB/c mice (serum, week 6, OVA 20 ug + TLR ligand i.d. day 0 and day 7, PGS 50 ug, PolyI:C 50 ug, LPS 20 ug, ISS-ODN 50 ug) is on record as 18853 ± 2439 U/ml. In the series on BALB/c mice (serum, week 6, OVA 20 ug + TLR ligand i.d. day 0 and day 7, PGS 50 ug, PolyI:C 50 ug, LPS 20 ug, ISS-ODN 50 ug, n.d.=none detected), the IgG2a stood at 2642 ± 380 U/ml. Besides, in the series on BALB/c mice (setting [11]), the IFNg stood at 672 ± 322 pg/mL and the IL-5 stood at 236 ± 87 pg/mL.

Regarding “m-ODN: control mutated ODN 5′-TGACTGTGAAGGTTAGAGATGA-3′ that lacks ISS activity (DNA, all phosphorothioate, methylation of C not given here)”, in the series with mice [10], the CTL response result was “did not demonstrate an increased IFN-γ or CTL response” and the “splenocyte IFN-γ response” value is “did not demonstrate an increased IFN-γ or CTL response”.
